# Experimental data taken from patent US12268674B2, “Mi-2β inhibitor as an immunotherapy agent” (BioVentures, LLC, priority 2021, dated 2025).
# Columns and labels:
# ACACB = molecular target: T1, ACACB (Homo sapiens, UniProt O00763); experiment: ATPase profile (ATP acyl phosphate probe); format: binding; settings: SEQ ID NO: 21, ATP BS
# T1 construct: to get the native cell lysate; host or cells: A375 cell lysate
# ACLY = molecular target: T2, ACLY (Homo sapiens, UniProt P53396); experiment: ATPase profile (ATP acyl phosphate probe); format: binding
# T2 construct: to get the native cell lysate; host or cells: A375 cell lysate
# DERA = molecular target: T3, DERA (Homo sapiens, UniProt Q9Y315); experiment: ATPase profile (ATP acyl phosphate probe); format: binding; settings: SEQ ID NO: 71, ATP BS
# T3 construct: endogenous in cells; host or cells: A375 cell lysate
# DYNC1H1 = molecular target: T4, DYNC1H1 (Homo sapiens, UniProt Q14204); experiment: ATPase profile (ATP acyl phosphate probe); format: binding
# T4 construct: endogenous in cells; host or cells: A375 cell lysate
# CCT8 = molecular target: T5, CCT8 (Homo sapiens, UniProt P50990); experiment: ATPase profile (ATP acyl phosphate probe); format: binding; settings: CCT8, SEQ ID NO: 56, ATP BS
# T5 construct: to get the native cell lysate; host or cells: A375 cell lysate
# DDX18 = molecular target: T6, DDX18 (Homo sapiens, UniProt Q9NVP1); experiment: ATPase profile (ATP acyl phosphate probe); format: binding; settings: DDX18, SEQ ID NO: 66, ATP BS
# T6 construct: endogenous in cells; host or cells: A375 cell lysate
# ABCC2 = molecular target: T7, ABCC2 (Homo sapiens, UniProt Q92887); experiment: ATPase profile (ATP acyl phosphate probe); format: binding; settings: ABCC2, SEQ ID NO: 8, ATP BS
# T7 construct: to get the native cell lysate; host or cells: A375 cell lysate
# [1] = molecular target: T8, recombinant purified human Mi-2β protein (Homo sapiens, UniProt Q14839); experiment: FRET-based nucleosome repositioning assay (EpiDyne-FRET); format: biochemical
# T8 construct: made in house
# Method: To screen small molecules that inhibit Mi-2β activity, Homology Modeling was carried out using Structure Prediction Wizard in Prime (49, 50). Mi-2β belongs to the CHD family of chromatin remodelers, which share highly conserved ATPase/helicase domains (51, 52). The Homology Model of Mi-2β was generated using the yeast CHD1 structure (PDB code: 3MWY) as template and the sequence was obtained from Uniprot (53), which clearly depicted the interaction of Mi-2β binding pocket and ATP (FIG. 10a). Virtual screening was done with the enzyme hinge region ligands database and nucleoside mimetic database from Enamine. All ligands of ˜23,010 compounds were docked to the ATP binding site using SP docking and post-processed with Prime MM-GBSA. Ligands with a methyldihydroimidazopyridinone structure were predicted to bind best to the ATP binding region of Mi-2β. To analyze biochemically the inhibitory activity of those inhibitors, a Fluorescence Resonance Energy Transfer (FRET)-based nucleosome repositioning assay (54, 55) was designed and modified using recombinant purified human Mi-2β protein to screen an in-house library of small molecular compounds with a methyldihydroimidazopyridinone structure (FIG. 10b). Briefly, the recombinant nucleosome substrates consist of a Cy5-labeled human histone octamer (H2A T120C-Cy5) wrapped with 5′ Cy3-labeled DNA, which contains a terminal nucleosome 601 positioning sequence. The 601 sequence provides the most thermodynamically preferred locations on DNA for histone octamer (56). FRET signaling was monitored by exciting the nucleosomes at the Cy3 absorption maximum and measuring Cy5 emissions and consequently the FRET signal is at a maximum at the assembled starting point. In the presence of ATP, Mi-2β induces the histone octamer to translocate along the DNA such that the Cy3-labeled DNA 5′ end is moved away from the Cy5-labeled octamer and consequently the FRET signal is decreased (FIG. 10b). The reaction conditions for nucleosome repositioning were modified through multiple rounds of optimization and validation (FIG. 10c-d). […]
# IDI1 = molecular target: T9, IDI1 (Homo sapiens, UniProt Q13907); experiment: ATPase profile (ATP acyl phosphate probe); format: binding; settings: IDI1, SEQ ID NO: 111, ATP BS
# T9 construct: endogenous in cells; host or cells: A375
# ABCC3 = molecular target: T10, ABCC3 (Homo sapiens, UniProt O15438); experiment: ATPase profile (ATP acyl phosphate probe); format: binding
# T10 construct: host or cells: A375 cell lysate
# DDX3X = molecular target: T11, DDX3X (Homo sapiens, UniProt O00571); experiment: ATPase profile (ATP acyl phosphate probe); format: binding; settings: SEQ ID NO: 70, ATP BS
# T11 construct: endogenous in cells; host or cells: A375 cell lysate
# DDX28 = molecular target: T12, DDX28 (Homo sapiens, UniProt Q9NUL7); experiment: ATPase profile (ATP acyl phosphate probe); format: binding; settings: DDX28, SEQ ID NO: 68, ATP BS
# T12 construct: endogenous in cells; host or cells: A375 cell lysate
# UBA3 = molecular target: T13, UBA3 (Homo sapiens, UniProt Q8TBC4); experiment: ATPase profile (ATP acyl phosphate probe); format: binding; settings: UBA3, SEQ ID NO: 220, ATP BS
# T13 construct: to get the native cell lysate; endogenous in cells; host or cells: A375 cell lysate
# T10 sequence (O15438 whole entry): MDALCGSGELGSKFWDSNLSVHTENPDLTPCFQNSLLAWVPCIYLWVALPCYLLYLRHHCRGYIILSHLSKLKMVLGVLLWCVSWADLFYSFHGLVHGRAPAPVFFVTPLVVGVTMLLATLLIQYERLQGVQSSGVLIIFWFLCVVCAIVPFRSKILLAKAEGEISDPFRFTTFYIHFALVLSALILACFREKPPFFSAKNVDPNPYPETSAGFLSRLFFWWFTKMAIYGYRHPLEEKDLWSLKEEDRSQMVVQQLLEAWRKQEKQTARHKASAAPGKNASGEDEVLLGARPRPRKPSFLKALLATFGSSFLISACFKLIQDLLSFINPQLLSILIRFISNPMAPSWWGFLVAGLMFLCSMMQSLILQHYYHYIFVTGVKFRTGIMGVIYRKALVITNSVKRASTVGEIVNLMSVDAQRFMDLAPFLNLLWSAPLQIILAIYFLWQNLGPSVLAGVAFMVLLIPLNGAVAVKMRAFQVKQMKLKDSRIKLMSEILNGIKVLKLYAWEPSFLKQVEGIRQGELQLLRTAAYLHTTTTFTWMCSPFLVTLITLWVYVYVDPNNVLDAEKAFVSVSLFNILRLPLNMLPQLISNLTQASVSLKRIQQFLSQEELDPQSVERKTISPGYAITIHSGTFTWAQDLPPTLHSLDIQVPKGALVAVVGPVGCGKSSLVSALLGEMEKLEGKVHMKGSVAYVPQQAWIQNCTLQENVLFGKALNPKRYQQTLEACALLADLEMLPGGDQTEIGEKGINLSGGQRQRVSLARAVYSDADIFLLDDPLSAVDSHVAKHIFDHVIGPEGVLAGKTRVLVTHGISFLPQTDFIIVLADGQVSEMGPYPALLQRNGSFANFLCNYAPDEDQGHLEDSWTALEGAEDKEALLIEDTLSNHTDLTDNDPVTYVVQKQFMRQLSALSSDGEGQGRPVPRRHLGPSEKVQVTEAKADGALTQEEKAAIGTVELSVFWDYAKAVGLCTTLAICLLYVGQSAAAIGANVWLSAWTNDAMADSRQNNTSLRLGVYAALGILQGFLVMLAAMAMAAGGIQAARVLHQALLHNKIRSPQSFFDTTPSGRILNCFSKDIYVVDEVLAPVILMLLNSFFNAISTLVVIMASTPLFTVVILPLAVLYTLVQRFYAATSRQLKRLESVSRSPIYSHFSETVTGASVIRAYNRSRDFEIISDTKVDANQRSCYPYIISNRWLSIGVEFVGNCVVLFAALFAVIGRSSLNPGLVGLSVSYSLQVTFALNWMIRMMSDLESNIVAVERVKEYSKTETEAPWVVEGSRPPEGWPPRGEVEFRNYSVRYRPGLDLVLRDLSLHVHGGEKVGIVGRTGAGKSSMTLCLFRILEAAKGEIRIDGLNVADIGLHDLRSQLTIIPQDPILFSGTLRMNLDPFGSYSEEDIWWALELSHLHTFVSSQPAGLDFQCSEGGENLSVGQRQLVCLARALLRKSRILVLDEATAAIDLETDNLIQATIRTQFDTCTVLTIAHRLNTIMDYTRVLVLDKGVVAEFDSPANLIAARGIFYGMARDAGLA
# T2 sequence (P53396 whole entry): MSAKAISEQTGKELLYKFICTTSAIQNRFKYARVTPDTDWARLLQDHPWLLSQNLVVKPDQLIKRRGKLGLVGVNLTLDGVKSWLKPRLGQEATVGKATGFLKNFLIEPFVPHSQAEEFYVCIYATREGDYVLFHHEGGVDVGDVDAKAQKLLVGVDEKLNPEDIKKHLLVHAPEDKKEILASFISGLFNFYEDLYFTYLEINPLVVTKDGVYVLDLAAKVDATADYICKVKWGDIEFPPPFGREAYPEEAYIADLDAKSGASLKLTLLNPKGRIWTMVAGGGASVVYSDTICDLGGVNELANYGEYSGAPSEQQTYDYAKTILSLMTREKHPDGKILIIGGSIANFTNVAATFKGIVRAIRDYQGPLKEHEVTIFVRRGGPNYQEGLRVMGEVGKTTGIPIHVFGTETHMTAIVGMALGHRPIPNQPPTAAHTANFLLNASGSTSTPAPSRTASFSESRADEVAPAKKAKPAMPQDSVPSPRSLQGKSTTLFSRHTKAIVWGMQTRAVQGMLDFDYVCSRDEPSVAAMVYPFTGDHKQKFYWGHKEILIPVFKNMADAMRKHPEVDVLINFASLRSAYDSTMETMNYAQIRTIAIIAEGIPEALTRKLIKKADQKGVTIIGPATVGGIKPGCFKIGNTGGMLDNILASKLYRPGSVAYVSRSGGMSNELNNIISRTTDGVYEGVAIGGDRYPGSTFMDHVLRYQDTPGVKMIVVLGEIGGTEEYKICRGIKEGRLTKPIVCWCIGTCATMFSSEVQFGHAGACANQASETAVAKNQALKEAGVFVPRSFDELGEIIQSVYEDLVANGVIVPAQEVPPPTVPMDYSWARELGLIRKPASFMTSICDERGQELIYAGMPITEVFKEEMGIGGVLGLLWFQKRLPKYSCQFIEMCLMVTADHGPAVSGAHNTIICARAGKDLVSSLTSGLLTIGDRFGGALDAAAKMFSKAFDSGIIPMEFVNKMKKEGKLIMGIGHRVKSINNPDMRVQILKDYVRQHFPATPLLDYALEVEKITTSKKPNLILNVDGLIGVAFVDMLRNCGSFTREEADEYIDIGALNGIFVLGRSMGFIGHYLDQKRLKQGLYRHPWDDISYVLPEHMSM
# T8 sequence (Q14839 whole entry): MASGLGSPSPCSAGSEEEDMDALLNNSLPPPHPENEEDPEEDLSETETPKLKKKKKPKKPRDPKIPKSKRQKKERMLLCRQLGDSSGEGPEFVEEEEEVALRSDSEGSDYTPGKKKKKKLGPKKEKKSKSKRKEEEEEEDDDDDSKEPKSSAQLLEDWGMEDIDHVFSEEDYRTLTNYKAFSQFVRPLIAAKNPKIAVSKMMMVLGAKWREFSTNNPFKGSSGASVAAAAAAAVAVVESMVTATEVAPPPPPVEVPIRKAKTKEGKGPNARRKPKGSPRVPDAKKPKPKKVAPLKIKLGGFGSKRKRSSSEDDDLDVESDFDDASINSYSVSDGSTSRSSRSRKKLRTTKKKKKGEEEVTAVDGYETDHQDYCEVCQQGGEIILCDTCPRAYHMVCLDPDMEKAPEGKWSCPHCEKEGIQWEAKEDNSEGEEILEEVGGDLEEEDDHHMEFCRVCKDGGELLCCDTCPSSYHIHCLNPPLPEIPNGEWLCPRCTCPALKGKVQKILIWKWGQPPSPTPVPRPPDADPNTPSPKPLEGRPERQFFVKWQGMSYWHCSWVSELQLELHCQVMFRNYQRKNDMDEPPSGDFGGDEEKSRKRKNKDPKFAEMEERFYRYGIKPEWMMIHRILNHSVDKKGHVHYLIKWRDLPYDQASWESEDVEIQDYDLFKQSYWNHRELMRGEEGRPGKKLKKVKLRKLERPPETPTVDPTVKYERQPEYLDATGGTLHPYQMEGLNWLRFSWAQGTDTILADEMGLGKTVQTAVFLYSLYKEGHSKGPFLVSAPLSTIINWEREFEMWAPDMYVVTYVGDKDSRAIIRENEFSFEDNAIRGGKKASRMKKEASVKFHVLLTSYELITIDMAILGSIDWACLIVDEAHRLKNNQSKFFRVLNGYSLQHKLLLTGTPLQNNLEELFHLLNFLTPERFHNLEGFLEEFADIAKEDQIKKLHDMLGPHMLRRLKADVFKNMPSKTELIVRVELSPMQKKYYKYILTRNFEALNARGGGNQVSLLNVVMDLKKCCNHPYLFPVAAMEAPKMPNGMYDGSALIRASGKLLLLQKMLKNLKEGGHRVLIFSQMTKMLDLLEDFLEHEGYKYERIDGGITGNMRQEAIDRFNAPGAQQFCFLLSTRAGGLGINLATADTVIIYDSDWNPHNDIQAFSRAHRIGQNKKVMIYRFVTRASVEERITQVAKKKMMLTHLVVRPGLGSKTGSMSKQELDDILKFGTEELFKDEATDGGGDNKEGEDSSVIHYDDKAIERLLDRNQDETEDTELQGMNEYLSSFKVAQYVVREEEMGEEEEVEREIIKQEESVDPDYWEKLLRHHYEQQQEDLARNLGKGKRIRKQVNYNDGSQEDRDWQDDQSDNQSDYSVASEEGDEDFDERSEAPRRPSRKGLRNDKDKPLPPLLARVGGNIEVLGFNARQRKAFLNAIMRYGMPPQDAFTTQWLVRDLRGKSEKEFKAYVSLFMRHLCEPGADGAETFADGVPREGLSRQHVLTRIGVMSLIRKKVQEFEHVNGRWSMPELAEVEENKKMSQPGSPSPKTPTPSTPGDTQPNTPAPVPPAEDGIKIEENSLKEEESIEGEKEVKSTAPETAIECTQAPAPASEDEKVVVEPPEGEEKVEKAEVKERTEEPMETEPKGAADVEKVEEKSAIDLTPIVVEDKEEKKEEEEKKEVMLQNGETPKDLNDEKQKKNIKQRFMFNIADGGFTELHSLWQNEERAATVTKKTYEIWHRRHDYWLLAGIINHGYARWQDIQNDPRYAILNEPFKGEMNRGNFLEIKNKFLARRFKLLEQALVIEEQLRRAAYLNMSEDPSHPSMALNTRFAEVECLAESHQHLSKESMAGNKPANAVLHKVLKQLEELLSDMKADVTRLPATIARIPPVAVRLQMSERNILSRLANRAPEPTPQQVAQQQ
# T9 sequence (Q13907 whole entry): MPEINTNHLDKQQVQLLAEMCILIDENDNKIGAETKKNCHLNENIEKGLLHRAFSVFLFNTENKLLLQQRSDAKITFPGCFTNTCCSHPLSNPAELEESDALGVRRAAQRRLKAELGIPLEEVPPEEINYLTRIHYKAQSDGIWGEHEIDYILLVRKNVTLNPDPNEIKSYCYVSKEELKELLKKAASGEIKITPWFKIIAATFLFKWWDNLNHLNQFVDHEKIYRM
# T3 sequence (Q9Y315 whole entry): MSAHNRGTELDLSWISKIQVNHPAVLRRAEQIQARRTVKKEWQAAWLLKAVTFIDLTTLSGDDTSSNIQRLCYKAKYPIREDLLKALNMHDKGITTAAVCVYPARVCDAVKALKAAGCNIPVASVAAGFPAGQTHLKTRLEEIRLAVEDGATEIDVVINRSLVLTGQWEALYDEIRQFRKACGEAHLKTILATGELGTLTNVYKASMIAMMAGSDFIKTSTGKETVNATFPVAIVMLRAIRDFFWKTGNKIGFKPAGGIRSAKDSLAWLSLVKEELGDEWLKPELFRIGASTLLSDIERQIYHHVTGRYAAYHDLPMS
smiles,measurement,setting,value
"Cn1c(=O)[nH]c2ccc(-c3cccc(C(=O)NC4CCn5ccnc5C4)c3)cc21 (centres unmarked) [Z36-MP5, 3-(3-methyl-2-oxo-2,3-dihydro-1H-benzo[d]imidazol-5-yl)-N-(5,6,7,8-tetrahydroimidazo[1,2-a]pyridin-7-yl)benzamide]",Inhibition (%) by 1 μM Z36-MP5,ACACB,−1.87%
same,Inhibition (%) by 1 μM Z36-MP5,"ACLY; SEQ ID NO: 22, ATP BS",−6.87%
same,Inhibition (%) by 1 μM Z36-MP5,"ACLY; SEQ ID NO: 23, ATP BS",2.00%
same,Inhibition (%) by 1 μM Z36-MP5,DERA,6.01%
same,Inhibition (%) by 1 μM Z36-MP5,"DYNC1H1; DYNC1H1, SEQ ID NO: 74, ATP BS",−1.99%
same,Inhibition (%) by 1 μM Z36-MP5,"DYNC1H1; DYNC1H1, SEQ ID NO: 75, ATP BS",0.38%
same,Inhibition (%) by 1 μM Z36-MP5,CCT8,9.18%
same,Inhibition (%) by 1 μM Z36-MP5,DDX18,−5.33%
same,Inhibition (%) by 1 μM Z36-MP5,ABCC2,4.09%
same,IC50,"[1]; FRET-based nucleosome repositioning assay, read-out: IC50 against Mi-2β",0.082 ± 0.013 µM
same,fold more potent than the original compound Z36,[1]; ratio of IC50 against Mi-2β,~85 fold
same,Inhibition (%) by 1 μM Z36-MP5,IDI1,5.48%
same,Inhibition (%) by 1 μM Z36-MP5,"ABCC3; ABCC3, SEQ ID NO: 9, ATP BS",4.57%
same,Inhibition (%) by 1 μM Z36-MP5,"ABCC3; ABCC3, SEQ ID NO: 10, ATP BS",9.43%
same,Inhibition (%) by 1 μM Z36-MP5,DDX3X,11.22%
same,Inhibition (%) by 1 μM Z36-MP5,DDX28,−5.30%
same,Inhibition (%) by 1 μM Z36-MP5,UBA3,−11.62%
